What was measured:
[1] = test system: BaF3 V617F cells; UKE-1; assay: Proliferation Assay (Cell Titer-Glo; Example 7); type: cell-based; conditions: proliferation 72 hours, inhibit JAK2 activity, cell line (BaF3 V617F or UKE-1) not stated
Summary of the method: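 Proliferation IC50s reflect 72 h compound exposure at 37 °C, read by Cell Titer-Glo luminescence. Compound was serially diluted 3-fold from a 5 mM DMSO stock and added as a 2× solution; BaF3 V617F cells were grown in RPMI/10% FBS, UKE-1 in Iscove's DMEM with FBS, equine serum and hydrocortisone.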

[2] = test system: Ramos B-Cell Line Stimulated with IL-4; assay: Assay for Ramos B-Cell Line Stimulated with IL-4 (CD23 upregulation, FACS; Example 2); type: cell-based; conditions: human Ramos B cells, IL-4 50 units/mL for 20-24 hours, anti-CD23-PE
Source text: One means of assaying for such inhibition is detection of the effect of the 2,4-pyrimidinediamine compounds on the upregulation of downstream gene products. In the Ramos/IL4 assay, B-cells are stimulated with the cytokine Interleukin-4 (IL-4) leading to the activation of the JAK/Stat pathway through phosphorylation of the JAK family kinases, JAK1 and JAK3, which in turn phosphorylate and activate the transcription factor Stat-6. […] To study the effect of inhibitors (e.g., the 2,4-substituted pyrimindinediamine compounds described herein) on the JAK1 and JAK3 kinases, human Ramos B cells are stimulated with human IL-4. 20 to 24 hours post stimulation, cells are stained for upregulation of CD23 and analyzed using flow cytometry (FACS). […] An exemplary assay of this type is described in greater detail in Example 2.
B-cells stimulated with cytokine Interleukin-4 (IL-4) activate the JAK/Stat pathway through phosphorylation of the JAK family kinases, JAK-1 and JAK-3, which in turn phosphorylate and activate the transcription factor Stat-6. […] To study the effect of inhibitors on the JAK family kinases, human Ramos B cells are stimulated with human IL-4.
The Ramos B-cell line was acquired from ATCC (ATCC Catalog No. CRL-1596). The cells were cultured in RPMI 1640 (Cellgro, MediaTech, Inc., Herndon, Va., Cat No. 10-040-CM) with 10% fetal bovine serum (FBS), heat inactivated (JRH Biosciences, Inc, Lenexa, Kans., Cat No. 12106-500M) according to ATCC propagation protocol. Cells were maintained at a density of 3.5×10^5. The day before the experiment, Ramos B-cells were diluted to 3.5×10^5 cells/mL to ensure that they were in a logarithmic growth phase.
Cells were spun down and suspended in RPMI with 5% serum. 5×10^4 cells were used per point in a 96-well tissue culture plate. Cells were pre-incubated with compound or DMSO (Sigma-Aldrich, St. Louis, Mo., Cat No. D2650) vehicle control for 1 hour in a 37° C. incubator.
Cells were then stimulated with IL-4 (Peprotech Inc., Rocky Hill, N.J., Cat No. 200-04) for a final concentration of 50 units/mL for 20-24 hours. Cells were then spun down and stained with anti-CD23-PE (BD Pharmingen, San Diego, Calif., Cat No. 555711) and analyzed by FACS. Detection was performed using a BD LSR I System Flow Cytometer, purchased from Becton Dickinson Biosciences of San Jose, Calif.

## CCN1CCN(c2ccc(Nc3ncc(F)c(Nc4ccc(CNS(=O)(=O)C5CC5)cc4)n3)cc2C)CC1 [II-6, N4-(4-cyclopropylsulfonylaminomethyl)phenyl-N2-[4-(4-ethylpiperazino)-3-methyl]phenyl-5-fluoro-2,4-pyrimidinediamine]
[1]
  IC50: 138 nM
[2]
  IC50: 36.4 nM

## Cc1cc(C)cc(Nc2ncc(C)c(Nc3ccc(CNS(=O)(=O)C4CC4)cc3)n2)c1 [II-7, N4-(4-cyclopropylsulfonylaminomethyl)phenyl-N2-(3,5-dimethyl)phenyl-5-methyl-2,4-pyrimidinediamine]
[1]
  IC50: 688 nM
[2]
  IC50: 44.9 nM

## CCN1CCN(c2ccc(Nc3ncc(C)c(Nc4ccc(CNS(=O)(=O)C5CC5)cc4)n3)cc2C)CC1 [II-8, N4-(4-cyclopropylsulfonylaminomethyl)phenyl-N2-[4-(4-ethylpiperazino)-3-methyl]phenyl-5-methyl-2,4-pyrimidinediamine]
[1]
  IC50: 200 nM
[2]
  IC50: 36.2 nM

## COc1cc(Nc2ncc(C)c(Nc3ccc(CNS(=O)(=O)C4CC4)cc3)n2)cc(OC)c1OC [II-9, N4-(4-cyclopropylsulfonylaminomethyl)phenyl-5-methyl-N2-(3,4,5-trimethoxy)phenyl-2,4-pyrimidinediamine]
[1]
  IC50: 408 nM
[2]
  IC50: 82.6 nM

## COc1ccc(Nc2ncc(C)c(Nc3ccc(CNS(=O)(=O)C4CC4)cc3)n2)cc1Cl [II-10, N2-(3-chloro-4-methoxy)phenyl-N4-(4-cyclopropylsulfonylaminomethyl)phenyl-5-methyl-2,4-pyrimidinediamine]
[1]
  IC50: 708 nM
[2]
  IC50: 57.8 nM

## Cc1cc(C)cc(Nc2ncc(C)c(Nc3cccc(CNS(=O)(=O)C4CC4)c3)n2)c1 [II-11, N4-(3-cyclopropylsulfonylaminomethyl)phenyl-N2-(3,5-dimethyl)phenyl-5-methyl-2,4-pyrimidinediamine]
[1]
  IC50: 2800 nM
[2]
  IC50: 254 nM

## CCN1CCN(c2ccc(Nc3ncc(C)c(Nc4cccc(CNS(=O)(=O)C5CC5)c4)n3)cc2C)CC1 [II-12, N4-(3-cyclopropylsulfonylaminomethyl)phenyl-N2-[4-(4-ethylpiperazino)-3-methyl]phenyl-5-methyl-2,4-pyrimidinediamine]
[1]
  IC50: 130 nM
[2]
  IC50: 101 nM

## COc1cc(Nc2ncc(C)c(Nc3cccc(CNS(=O)(=O)C4CC4)c3)n2)cc(OC)c1OC [II-13, N4-(3-cyclopropylsulfonylaminomethyl)phenyl-5-methyl-N2-(3,4,5-trimethoxy)phenyl-2,4-pyrimidinediamine]
[1]
  IC50: 359 nM
[2]
  IC50: 126 nM

## COc1ccc(Nc2ncc(C)c(Nc3cccc(CNS(=O)(=O)C4CC4)c3)n2)cc1Cl [II-14, N2-(3-chloro-4-methoxy)phenyl-N4-(3-cyclopropylsulfonylaminomethyl)phenyl-5-methyl-2,4-pyrimidinediamine]
[1]
  IC50: 2190 nM
[2]
  IC50: 152 nM

## NC(=O)c1ccc(Nc2ncc(F)c(Nc3ccc(CNS(=O)(=O)C4CC4)cc3)n2)cc1 [II-15, N2-(4-aminocarbonyl)phenyl-N4-(4-cyclopropylsulfonylaminomethyl)phenyl-5-fluoro-2,4-pyrimidinediamine]
[1]
  IC50: 8060 nM
[2]
  IC50: 78.1 nM

## NC(=O)c1cccc(Nc2ncc(F)c(Nc3ccc(CNS(=O)(=O)C4CC4)cc3)n2)c1 [II-16, N2-(3-aminocarbonyl)phenyl-N4-(4-cyclopropylsulfonylaminomethyl)phenyl-5-fluoro-2,4-pyrimidinediamine]
[1]
  IC50: 3290 nM
[2]
  IC50: 265 nM

## Cc1cnc(Nc2ccc(C(N)=O)cc2)nc1Nc1ccc(CNS(=O)(=O)C2CC2)c(Cl)c1 [II-17, N2-(4-aminocarbonyl)phenyl-N4-(3-chloro-4-cyclopropylsulfonylaminomethyl)phenyl-5-methyl-2,4-pyrimidinediamine]
[1]
  IC50: 2950 nM
[2]
  IC50: 87.1 nM

## Cc1cnc(Nc2ccc(C(N)=O)cc2)nc1Nc1ccc(CN(C)S(=O)(=O)C2CC2)cc1 [II-19, N2-(4-aminocarbonyl)phenyl-N4-[4-(N-cyclopropylsulfonyl-N-methyl)aminomethyl]phenyl-5-methyl-2,4-pyrimidinediamine]
[1]
  IC50: 2210 nM
[2]
  IC50: 106 nM

## Cc1cnc(Nc2ccc(C(N)=O)cc2)nc1Nc1cccc(CN(C)S(=O)(=O)C2CC2)c1 [II-21, N2-(4-aminocarbonyl)phenyl-N4-[3-(N-cyclopropylsulfonyl-N-methyl)aminomethyl]phenyl-5-methyl-2,4-pyrimidinediamine]
[1]
  IC50: 479 nM
[2]
  IC50: 110 nM

## Cc1cnc(Nc2cccc(C(N)=O)c2)nc1Nc1cccc(CN(C)S(=O)(=O)C2CC2)c1 [II-22, N2-(3-aminocarbonyl)phenyl-N4-[3-(N-cyclopropylsulfonyl-N-methyl)aminomethyl]phenyl-5-methyl-2,4-pyrimidinediamine]
[1]
  IC50: 2690 nM
[2]
  IC50: 302 nM

## Cc1cnc(Nc2ccc(C(N)=O)cc2)nc1Nc1cccc(CNS(=O)(=O)C2CC2)c1 [II-23, N2-(4-aminocarbonyl)phenyl-N4-(3-cyclopropylsulfonylaminomethyl)phenyl-5-methyl-2,4-pyrimidinediamine]
[1]
  IC50: 6140 nM
[2]
  IC50: 107 nM

## Cc1cnc(Nc2ccc(C#N)cc2)nc1Nc1cccc(CNS(=O)(=O)C2CC2)c1 [II-25, N2-(4-cyano)phenyl-N4-(3-cyclopropylsulfonylaminomethyl)phenyl-5-methyl-2,4-pyrimidinediamine]
[1]
  IC50: 2300 nM
[2]
  IC50: 142 nM

## Cc1cnc(Nc2cccc(C#N)c2)nc1Nc1cccc(CNS(=O)(=O)C2CC2)c1 [II-26, N2-(3-cyano)phenyl-N4-(3-cyclopropylsulfonylaminomethyl)phenyl-5-methyl-2,4-pyrimidinediamine]
[1]
  IC50: 2240 nM
[2]
  IC50: 146 nM

## Cc1cnc(Nc2cccc(C#N)c2)nc1Nc1ccc(CN(C)S(=O)(=O)C2CC2)cc1 [II-28, N2-(3-cyano)phenyl-N4-[4-(N-cyclopropylsulfonyl-N-methyl)aminomethyl]phenyl-5-methyl-2,4-pyrimidinediamine]
[1]
  IC50: 10900 nM
[2]
  IC50: 233 nM

## N#Cc1ccc(Nc2ncc(F)c(Nc3ccc(CNS(=O)(=O)C4CC4)cc3)n2)cc1 [II-29, N2-(4-cyano)phenyl-N4-(4-cyclopropylsulfonylaminomethyl)phenyl-5-fluoro-2,4-pyrimidinediamine]
[1]
  IC50: 12500 nM
[2]
  IC50: 78.6 nM

## N#Cc1cccc(Nc2ncc(F)c(Nc3ccc(CNS(=O)(=O)C4CC4)cc3)n2)c1 [II-30, N2-(3-cyano)phenyl-N4-(4-cyclopropylsulfonylaminomethyl)phenyl-5-fluoro-2,4-pyrimidinediamine]
[1]
  IC50: 1130 nM
[2]
  IC50: 94.6 nM

## Cc1cnc(Nc2ccc(C(N)=O)cc2)nc1Nc1ccc(CNS(=O)(=O)C2CC2)cc1 [II-31, N2-(4-aminocarbonyl)phenyl-N4-(4-cyclopropylsulfonylaminomethyl)phenyl-5-methyl-2,4-pyrimidinediamine]
[1]
  IC50: 2130 nM
[2]
  IC50: 35.7 nM

## Cc1cnc(Nc2cccc(C(N)=O)c2)nc1Nc1ccc(CNS(=O)(=O)C2CC2)cc1 [II-32, N2-(3-aminocarbonyl)phenyl-N4-(4-cyclopropylsulfonylaminomethyl)phenyl-5-methyl-2,4-pyrimidinediamine]
[1]
  IC50: 1530 nM
[2]
  IC50: 52.3 nM

## Cc1cnc(Nc2ccc(C#N)cc2)nc1Nc1ccc(CNS(=O)(=O)C2CC2)cc1 [II-33, N2-(4-cyano)phenyl-N4-(4-cyclopropylsulfonylaminomethyl)phenyl-5-methyl-2,4-pyrimidinediamine]
[1]
  IC50: 698 nM
[2]
  IC50: 20.3 nM

From patent US8304422B2, “Compositions and methods for inhibition of the JAK pathway” (Rigel Pharmaceuticals, Inc., priority 2007, dated 2012)
